In BindingDB's records for patent US20240158406 (Chengdu Baiyu Pharmaceutical Co., 2024) one finds IC50 data, which are given here for one compound.

A value given as a limit tells only on which side of the number the result lay.

What is called IC50 is the concentration at which inhibition is half-maximal.

This test concerns the target T1, Protein mono-ADP-ribosyltransferase TIPARP (Homo sapiens, UniProt Q7Z3E1).
T1 sequence (Q7Z3E1 whole entry): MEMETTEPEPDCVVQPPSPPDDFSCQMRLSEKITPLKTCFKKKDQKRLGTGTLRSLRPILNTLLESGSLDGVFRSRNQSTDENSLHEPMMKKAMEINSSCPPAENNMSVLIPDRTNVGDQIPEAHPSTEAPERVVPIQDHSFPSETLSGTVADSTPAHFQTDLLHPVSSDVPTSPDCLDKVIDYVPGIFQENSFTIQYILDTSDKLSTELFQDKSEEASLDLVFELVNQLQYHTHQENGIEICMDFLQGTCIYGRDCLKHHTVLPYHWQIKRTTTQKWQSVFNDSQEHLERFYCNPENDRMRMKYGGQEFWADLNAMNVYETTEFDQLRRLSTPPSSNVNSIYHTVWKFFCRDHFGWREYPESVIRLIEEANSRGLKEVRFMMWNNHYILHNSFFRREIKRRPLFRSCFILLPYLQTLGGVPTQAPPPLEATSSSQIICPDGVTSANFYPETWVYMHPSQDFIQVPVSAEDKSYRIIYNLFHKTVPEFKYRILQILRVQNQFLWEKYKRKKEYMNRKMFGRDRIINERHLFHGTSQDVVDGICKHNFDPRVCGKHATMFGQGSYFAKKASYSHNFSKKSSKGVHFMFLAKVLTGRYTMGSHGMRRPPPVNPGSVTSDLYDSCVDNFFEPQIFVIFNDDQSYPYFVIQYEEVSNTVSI
Kind of test: Enzymatic Biochemical Assay of PARP. The protocol: The specific scheme was as follows: the 1× histone mixture was added to a 96-well plate at 50 μL per well, and the plate was incubated overnight at 4° C. The next day, after the plate was washed with PBST, 200 μL of blocking buffer per well was added, and the plate was incubated for 90 min. After the plate was washed with PBST again, 5 μL of inhibitor, 20 μL of 1×PARP buffer and 25 μL of […] were added to each well, and the plate was incubated at room temperature for 30 min. After the plate was washed with PBST, 100 μL of Elisa ECL substrate A and B mixture was added to each well, chemiluminescence value was immediately read using a plate reader, and IC50 values were calculated.

In turn, `C[C@@H](COCc1nn2c(c1Cl)CN(c1cnc(C(F)(F)F)cn1)CC2)Nc1cn[nH]c(=O)c1C(F)(F)F` [US20240158406, Compound 14] had an IC50 of under 10 nM.
